Values quoted from earlier work as cited in PubChem BioAssay AID1259409 (Chemical Carcinogenesis Research Information System (CCRIS), 2018).

Test system: rodent chemically induced tumor inhibition, incidence and multiplicity
Assay: CCRIS tumor inhibitor studies
Settings: Species: MOUSE

S=C=NCCc1ccccc1
tumour outcome (control, treated, inhibition, significance) (Carcinogen: 4(METHYLNITROSAMINO)1-(3-PYRIDYL)-1-BUTANONE, 64091-91-4, Dose [Inhibitor]: 0, 5 UMOL IN 0.1 ML CORN OIL WITH 10% DMSO 2 HR PRIOR TO CARCINOGEN DOSE (STUDY DURATION: 16 WK), Route [Inhibitor]: GAVAGE, Strain/Sex: STRAIN-A/FEMALE, Target Tissue: Type of Lesion: LUNG: ADENOMA, Dose [Carcinogen]: 10 UMOL IN 0.1 ML SALINE ONCE, Promoter: NONE USED): 100%, 100%, 0%, not significant
tumour outcome (control, treated, inhibition, significance) (Carcinogen: 4-(METHYLNITROSAMINO)-1-(3-PYRIDYL)-1-BUTANONE (NNK) [64091-91-4], Dose [Inhibitor]: 1.5 UM/G DIET, BEGINNING 13 WKS AFTER CARCINOGEN/PROMOTER TREATMENT (STUDY DURATION: 42 WK), Route [Inhibitor]: DIET, Strain/Sex: A/J/FEMALE, Target Tissue: Type of Lesion: LUNG: ADENOCARCINOMA, Dose [Carcinogen]: 3 µM WEEKLY FOR 8 DOSES, Promoter: BENZO[A]PYRENE [50-32-8]): 42%, 35%, 17%, not significant
tumour outcome (control, treated, inhibition, significance) (Carcinogen: 4-(METHYLNITROSAMINO)-1-(3-PYRIDYL)-1-BUTANONE (NNK) [64091-91-4], Dose [Inhibitor]: 1.5 UM/G DIET, BEGINNING 13 WKS AFTER CARCINOGEN/PROMOTER TREATMENT (STUDY DURATION: 42 WK), Route [Inhibitor]: DIET, Strain/Sex: A/J/FEMALE, Target Tissue: Type of Lesion: LUNG: ADENOMA, Dose [Carcinogen]: 3 µM WEEKLY FOR 8 DOSES, Promoter: BENZO[A]PYRENE [50-32-8]): 100%, 95%, 5%, not significant
tumour outcome (control, treated, inhibition, significance) (Carcinogen: 4-(METHYLNITROSAMINO)-1-(3-PYRIDYL)-1-BUTANONE (NNK) [64091-91-4], Dose [Inhibitor]: 3 UM/G DIET, BEGINNING 13 WKS AFTER CARCINOGEN/PROMOTER TREATMENT (STUDY DURATION: 42 WK), Route [Inhibitor]: DIET, Strain/Sex: A/J/FEMALE, Target Tissue: Type of Lesion: LUNG: ADENOCARCINOMA, Dose [Carcinogen]: 3 µM WEEKLY FOR 8 DOSES, Promoter: BENZO[A]PYRENE [50-32-8]): 42%, 19%, 55%, p<0.05
tumour outcome (control, treated, inhibition, significance) (Carcinogen: 4-(METHYLNITROSAMINO)-1-(3-PYRIDYL)-1-BUTANONE [64091-91-4] (NNK), Dose [Inhibitor]: 3 UM/G DIET, BEGINNING 13 WKS AFTER CARCINOGEN/PROMOTER TREATMENT (STUDY DURATION: 42 WK), Route [Inhibitor]: DIET, Strain/Sex: A/J/FEMALE, Target Tissue: Type of Lesion: LUNG: ADENOMA, Dose [Carcinogen]: 3 µM WEEKLY FOR 8 DOSES, Promoter: BENZO[A]PYRENE [50-32-8]): 100%, 100%, 0%, not significant
tumour outcome (control, treated, inhibition, significance) (Carcinogen: 4-(METHYLNITROSAMINO)-1-(3-PYRIDYL)-1-BUTANONE [64091-91-4], BENZO[A]PYRENE [50-32-8], Dose [Inhibitor]: 0.3 UMOL/G IN DIET FOR 10 WK BEGINNING 1 WK PRIOR TO FIRST CARCINOGEN DOSE (STUDY DURATION: 28 WK), Route [Inhibitor]: ORAL, Strain/Sex: A/J/FEMALE, Target Tissue: Type of Lesion: LUNG: TUMOR, Dose [Carcinogen]: 3 UMOL BAP + 3 UMOL NNK IN 0.1 ML COTTONSEED OIL 1X/WK FOR 8 WK (STUDY DURATION: 28 WK), Promoter: NONE): 100%, 100%, 0%, not calculated
tumour outcome (control, treated, inhibition, significance) (Carcinogen: 4-(METHYLNITROSAMINO)-1-(3-PYRIDYL)-1-BUTANONE [64091-91-4], BENZO[A]PYRENE [50-32-8], Dose [Inhibitor]: 1 UMOL/G IN DIET FOR 10 WK BEGINNING 1 WK PRIOR TO FIRST CARCINOGEN DOSE (STUDY DURATION: 28 WK), Route [Inhibitor]: ORAL, Strain/Sex: A/J/FEMALE, Target Tissue: Type of Lesion: LUNG: TUMOR, Dose [Carcinogen]: 3 UMOL BAP + 3 UMOL NNK IN 0.1 ML COTTONSEED OIL 1X/WK FOR 8 WK (STUDY DURATION: 28 WK), Promoter: NONE): 100%, 100%, 0%, not calculated
tumour outcome (control, treated, inhibition, significance) (Carcinogen: 4-(METHYLNITROSAMINO)-1-(3-PYRIDYL)-1-BUTANONE [64091-91-4], BENZO[A]PYRENE [50-32-8], Dose [Inhibitor]: 3 UMOL/G IN DIET FOR 10 WK BEGINNING 1 WK PRIOR TO FIRST CARCINOGEN DOSE (STUDY DURATION: 28 WK), Route [Inhibitor]: ORAL, Strain/Sex: A/J/FEMALE, Target Tissue: Type of Lesion: LUNG: TUMOR, Dose [Carcinogen]: 3 UMOL BAP + 3 UMOL NNK IN 0.1 ML COTTONSEED OIL 1X/WK FOR 8 WK (STUDY DURATION: 28 WK), Promoter: NONE): 100%, 100%, 0%, not calculated
tumour outcome (control, treated, inhibition, significance) (Carcinogen: 4-(METHYLNITROSAMINO)-1-(3-PYRIDYL)-1-BUTANONE [64091-91-4], BENZO[A]PYRENE [50-32-8], Dose [Inhibitor]: 6 UMOL IN 0.1 ML COTTONSEED OIL 1X/WK FOR 8 WK 2 PRIOR TO EACH CARCINOGEN DOSE (STUDY DURATION: 16 WK), Route [Inhibitor]: GAVAGE, Strain/Sex: A/J/FEMALE, Target Tissue: Type of Lesion: LUNG: TUMOR, Dose [Carcinogen]: 3 UMOL BAP + 3 UMOL NNK IN 0.1 ML COTTONSEED OIL 1X/WK FOR 8 WK (STUDY DURATION: 16 WK), Promoter: NONE): 100%, 100%, 0%, not calculated
tumour outcome (control, treated, inhibition, significance) (Carcinogen: 4-(METHYLNITROSAMINO)-1-(3-PYRIDYL)-1-BUTANONE [64091-91-4], Dose [Inhibitor]: 0.3 UMOL/G IN DIET FOR 10 WK BEGINNING 1 WK PRIOR TO FIRST CARCINOGEN DOSE (STUDY DURATION: 28 WK), Route [Inhibitor]: ORAL, Strain/Sex: A/J/FEMALE, Target Tissue: Type of Lesion: LUNG: TUMOR, Dose [Carcinogen]: 3 UMOL IN 0.1 ML COTTONSEED OIL 1X/WK FOR 8 WK (STUDY DURATION: 28 WK), Promoter: NONE): 100%, 100%, 0%, not calculated
tumour outcome (control, treated, inhibition, significance) (Carcinogen: 4-(METHYLNITROSAMINO)-1-(3-PYRIDYL)-1-BUTANONE [64091-91-4], Dose [Inhibitor]: 1 UMOL/G IN DIET FOR 10 WK BEGINNING 1 WK PRIOR TO FIRST CARCINOGEN DOSE (STUDY DURATION: 28 WK), Route [Inhibitor]: ORAL, Strain/Sex: A/J/FEMALE, Target Tissue: Type of Lesion: LUNG: TUMOR, Dose [Carcinogen]: 3 UMOL IN 0.1 ML COTTONSEED OIL 1X/WK FOR 8 WK (STUDY DURATION: 28 WK), Promoter: NONE): 100%, 100%, 0%, not calculated
tumour outcome (control, treated, inhibition, significance) (Carcinogen: 4-(METHYLNITROSAMINO)-1-(3-PYRIDYL)-1-BUTANONE [64091-91-4], Dose [Inhibitor]: 3 UMOL/G IN DIET FOR 10 WK BEGINNING 1 WK PRIOR TO FIRST CARCINOGEN DOSE (STUDY DURATION: 28 WK), Route [Inhibitor]: ORAL, Strain/Sex: A/J/FEMALE, Target Tissue: Type of Lesion: LUNG: TUMOR, Dose [Carcinogen]: 3 UMOL IN 0.1 ML COTTONSEED OIL 1X/WK FOR 8 WK (STUDY DURATION: 28 WK), Promoter: NONE): 100%, 100%, 0%, not calculated
tumour outcome (control, treated, inhibition, significance) (Carcinogen: 4-(METHYLNITROSAMINO)-1-(3-PYRIDYL)-1-BUTANONE, 64091-91-4, Dose [Inhibitor]: 0, 0.2 UMOL 1/D FOR 4 D ADMINISTERED PRIOR TO CARCINOGEN TREATMENT (STUDY DURATION: 116 D), Route [Inhibitor]: GAVAGE, Strain/Sex: STRAIN A, Target Tissue: Type of Lesion: LUNG ADENOMA, Dose [Carcinogen]: 10 UMOL ONCE 2 HR AFTER FINAL DOSE OF INHIBITOR, Promoter: NONE USED): 100%, 100%, 0%, not significant
tumour outcome (control, treated, inhibition, significance) (Carcinogen: 4-(METHYLNITROSAMINO)-1-(3-PYRIDYL)-1-BUTANONE, 64091-91-4, Dose [Inhibitor]: 0, 0.008% IN DIET FOR 17 WK BEGINNING 1 WK PRIOR TO CARCINOGEN DOSE (STUDY DURATION: 17 WK), Route [Inhibitor]: ORAL, Strain/Sex: STRAIN-A/FEMALE, Target Tissue: Type of Lesion: LUNG: ADENOMA, Dose [Carcinogen]: 10 UMOL IN 0.1 ML SALINE ONCE, Promoter: NONE USED): 100%, 96%, 4%, not significant
tumour outcome (control, treated, inhibition, significance) (Carcinogen: 4-(METHYLNITROSAMINO)-1-(3-PYRIDYL)-1-BUTANONE, 64091-91-4, Dose [Inhibitor]: 0, 1 UMOL 1/D FOR 4 D ADMINISTERED PRIOR TO CARCINOGEN TREATMENT (STUDY DURATION: 116 D), Route [Inhibitor]: GAVAGE, Strain/Sex: STRAIN A, Target Tissue: Type of Lesion: LUNG: ADENOMA, Dose [Carcinogen]: 10 UMOL ONCE, Promoter: NONE USED): 100%, 100%, 0%, not significant
